Measured values from patent US8044094B2, “Agents for preventing and treating disorders connected to impaired neurotransmission” (DSM IP Assets B.V., priority 2004, dated 2011).

Assays:
[1] = biological target: T1, human serotonin re-uptake transporter (hSERT) (Homo sapiens, UniProt P31645); assay: Labeled citalopram displacement from hSERT containing membranes (SPA); format: binding
Method: Membranes containing hSERT were prepared from the above cell line according to Galli et al, Journal of Experimental Biology 1995, 198, 2197-2212. 3 μg of membrane protein and 0.8 mg of wheat germ aglutinin coated SPA® (scintillation proximity assay) beads (Amersham Biosciences GE Healthcare, Slough, UK) per data point were mixed with radio-labeled (3H) citalopram (Amersham Biosciences GE Healthcare, Slough, UK) until a final concentration of 3.3 nM in 50 mM Tris-HCl, 300 mM NaCl (pH 7.4). After incubation for 18 hours at room temperature, the bound citalopram was quantified by liquid scintillation counting.
(§1) The effect of the coumarin ethers of formula I on the serotonin uptake and the citalopram binding was determined by its inclusion in the assay at a range of concentrations between 0.03 and 100 μM for 10 minutes prior to and during the addition of (3H) serotonin/citalopram. Serotonin uptake via the transporter and citalopram binding were both inhibited by the coumarin ethers of formula I in a dose dependent manner. The calculated inhibition constants Ki, derived from the measured IC50 using the Cheng—Prusoff equation (Y. C. Cheng, W. H. Prusoff, Biochem. Pharmacol. 1973, 22, p. 3099-3108), for inhibition of serotonin uptake and citalopram binding by coumarin ethers of the formula I are shown in Table 1.

[2] = biological target: T1, human serotonin re-uptake transporter (hSERT); assay: Serotonin uptake inhibition in HEK-293 cells stably expressing hSERT; format: cell-based
Method: HEK-293 cells stably expressing the human serotonin re-uptake transporter (hSERT) were obtained from R. Blakely, Vanderbilt University, USA. The cells were routinely grown in Dulbeco's Modified Eagles Medium, purchased from Bioconcept, Allschwil, Switzerland containing 10% fetal calf serum, penicillin, streptomycin, L-glutamine and the antibiotic G418 and passaged by trypsinisation. 1 day prior to the assay cells were seeded in the above mentioned medium. Immediately prior to the assay the medium was replaced by Krebs Ringers bicarbonate buffer, purchased from Sigma Chemicals Ltd., supplemented with 35 μM pargyline, 2.2 mM CaCl2, 1 mM ascorbic acid and 5 mM N-2-hydroxyethylpiperazine-N′-2-ethanesulfonic acid (buffer called “Hepes”). Serotonin uptake into the cells was determined by addition of radio-labeled (3H) serotonin (Amersham Biosciences GE Healthcare, Slough, UK) to a concentration of 20 nM, and incubation for 30 minutes at room temperature. Following removal of unincorporated label by gentle washing three times with the above buffer, incorporated serotonin was quantified by liquid scintillation counting.
as §1

mice = assay: Marble burying test (anxiety like or obsessive compulsive behaviour); format: in vivo; conditions: for number of marbles covered by sawdust, mean ± s.e.m.: 25 marbles, 30-minute test
Method: The method applied here follows that described by Broekkamp et al. (1986). Mice (n=15 per treatment group) were individually placed in transparent plastic cages (33×21×18 cm) with 5 cm of sawdust on the floor and 25 marbles (diameter 1 cm) grouped in the centre of the cage. A second, up-turned, cage served as a lid. The number of marbles covered by sawdust (by at least two-thirds) was counted at the end of the 30-minute test period. Tests were performed by investigators blind to the drug treatment protocol.
Prior to testing, all test cages and marbles were “impregnated” by leaving 10 naive mice in each cage for 15 minutes.
7-Geranyl-oxycoumarin was evaluated at 3, 10 and 30 mg/kg, administered i.p. 30 minutes before the test, and compared with a vehicle control group. 7-Geranyl-oxycoumarin was dissolved in a saline solution containing 3 weight-% DMSO and 3 weight-% Tween® 80 (so called “vehicle”). To the control group the vehicle consisting of the saline solution containing 3 weight-% DMSO and 3 weight-% Tween® 80 was administered intraperitonally. Fluoxetine (32 mg/kg), administered under the same experimental conditions, was used as a reference substance.
Data were analysed by comparing treated groups with vehicle control using unpaired Student's t-tests.

[3] = hSERT containing membranes, Ki from IC50 by Cheng-Prusoff, 3.3 nM (3H) citalopram, read-out: Inhibition constant Ki for tritiated citalopram displacement
[4] = transfected HEK-293 cells, Ki from IC50 by Cheng-Prusoff, 20 nM (3H) serotonin, read-out: Inhibition constant Ki for tritiated serotonin uptake

T1 sequence (P31645 whole entry): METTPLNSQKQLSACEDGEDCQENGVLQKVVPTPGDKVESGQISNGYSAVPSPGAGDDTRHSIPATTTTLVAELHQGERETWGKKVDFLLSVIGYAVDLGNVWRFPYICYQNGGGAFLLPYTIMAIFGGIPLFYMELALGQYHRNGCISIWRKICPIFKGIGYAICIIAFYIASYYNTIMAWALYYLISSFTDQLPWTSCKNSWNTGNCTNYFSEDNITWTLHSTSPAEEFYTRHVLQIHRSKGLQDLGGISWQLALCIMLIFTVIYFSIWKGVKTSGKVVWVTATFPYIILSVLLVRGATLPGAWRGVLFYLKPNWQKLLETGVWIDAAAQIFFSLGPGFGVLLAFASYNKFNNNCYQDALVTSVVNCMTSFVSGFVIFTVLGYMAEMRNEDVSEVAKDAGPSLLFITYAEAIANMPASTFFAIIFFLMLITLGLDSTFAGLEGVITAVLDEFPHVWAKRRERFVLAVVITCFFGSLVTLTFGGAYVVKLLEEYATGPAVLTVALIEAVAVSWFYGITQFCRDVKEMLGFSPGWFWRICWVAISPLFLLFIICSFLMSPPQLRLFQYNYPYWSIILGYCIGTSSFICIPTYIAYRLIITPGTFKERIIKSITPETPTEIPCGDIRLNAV

COc1cc2oc(=O)ccc2cc1CC=C(C)C [Suberosin, suberosin] showed a Ki [1, 3] of 39.3 µM and a Ki [2, 4] of 9.8 µM.

With CC1(C)C=Cc2cc3ccc(=O)oc3cc2O1 [Xanthyletin, xanthyletin] the Ki [1, 3] was 11.9 µM and the Ki [2, 4] was 20.2 µM.

In the case of CC(C)=CCC/C(C)=C/COc1ccc2ccc(=O)oc2c1 [7-Geranyloxycoumarin, 7-geranyloxycoumarin], the Ki [1, 3] is reported as 24.2 µM, the Ki [2, 4] is reported as 22.4 µM and the “number of marbles covered by sawdust, % change from control” value (“number … % change from control” below) (mice; 3 mg/kg i.p. −30 minutes, 3 mg/kg) is reported as −27%. For the same compound, the “number of marbles covered by sawdust, mean ± s.e.m.” value (from here on “number … mean ± s.e.m.”) (mice; 3 mg/kg i.p. −30 minutes) was 13.4 ± 2.0, the “number … % change from control” value (mice; 3 mg/kg i.p. −30 minutes, listed as 7-Geranyl-oxycoumauin, 3 mg/kg) was −27% and the “number … % change from control” value (mice; 10 mg/kg i.p. −30 minutes, 10 mg/kg) was −39%. For the same compound, the “number … mean ± s.e.m.” value (mice; 10 mg/kg i.p. −30 minutes) was 11.3 ± 2.4, the “number … % change from control” value (mice; 10 mg/kg i.p. −30 minutes, listed as 7-Geranyl-oxycoumauin, 10 mg/kg) was −39% and the “number … % change from control” value (mice; 30 mg/kg i.p. −30 minutes, 30 mg/kg) was −74%. For the same compound, the “number … mean ± s.e.m.” value (mice; 30 mg/kg i.p. −30 minutes) was 4.7 ± 1.5 and the “number … % change from control” value (mice; 30 mg/kg i.p. −30 minutes, listed as 7-Geranyl-oxycoumauin, 30 mg/kg) was −74%.

CNCCC(Oc1ccc(C(F)(F)F)cc1)c1ccccc1 (stereo not drawn) [fluoxetine, reference compound] was tested, and the “number … % change from control” value (mice; 32 mg/kg i.p. −30 min, 32 mg/kg) was −98%, the “number … mean ± s.e.m.” value (mice; 32 mg/kg i.p. −30 min) was 0.3 ± 0.2 and the “number … % change from control” value (mice; 32 mg/kg i.p. −30 min, listed as Fluoxetine, 32 mg/kg) was −98%.

C/C(=C\COc1ccc2ccc(=O)oc2c1)CCC(=O)C(C)(C)O [6′-Dehydromarmin, 6′-dehydromarmin] gave a Ki [1, 3] of 10.3 µM and a Ki [2, 4] of 12.1 µM.

In the case of CC(=O)OC(C)(C)[C@@H]1Cc2c(ccc3ccc(=O)oc23)O1 [(S)—O-Acetylcolumbianetin], the Ki [1, 3] is reported as 11.6 µM and the Ki [2, 4] is reported as 21.7 µM.

In the case of C/C(=C\COc1ccc2ccc(=O)oc2c1)C1=CC(=O)C(C)(C)O1 [Geiparvarin, geiparvarin], the Ki [1] is reported as 5.6 µM and the Ki [2] is reported as 7 µM.
